Measurements as given in patent US11351178B2, “Selective HDAC6 inhibitors” (ITALFARMACO S.P.A., priority 2017, dated 2022).
Entries after “also recorded” stand apart in the source; their conditions may differ.

Legend:
[1] = system: CT26 tumor; assay: CT-26 murine model, single agents and combination with anti PD-1 (FIG. 3); type: in vivo, BALB/c mice; conditions: for CT-26 tumor growth/progression, single agent: p.o. 50 mg/Kg daily
Method: FIG. 3: HDAC6 inhibitors reduces CT-26 tumor growth in vivo and their activity can be improved by combined treatment with anti PD-1 antibody. Statistics was evaluated at day 30 by Student's t test. *, P<0.05; **, P<0.01; ***, P<0.001. See text for further details. […] Adult BALB/c mice were injected s.c. with 1×10^6 CT26 tumor cells (diluted to 100 ul with phosphate-buffered saline). One week later, mice were given daily compounds 8 and 10 p.o. at 50 mg/Kg and/or injected with anti-PD1 antibody at 10 mg/Kg. At time of sacrifice, spleens were taken to analyze ex vivo, the tumor immune response. Spleen cells were stimulated with a mixture of CT-26 tumor specific peptides recognized in the context of both MHC I and MHC II. Thus, using this ex vivo stimulation, a specific tumor response mediated by CD4 and CD8 T cells can be detected.

[2] = system: EMT6, CT26, 4T1 murine tumors; assay: In vivo murine tumor models (FIG. 2); set-up: species or system mouse; conditions: compounds 50 mg/kg oral gavage once a day 5 days a week, anti PD-1 10 mg/kg ip three times a week
Excerpt: Four different immune-oncology mouse models of cancer were used to evaluate the in vivo efficacy of compounds 8 and 10 of this invention. In this experiment, we compared the efficacy of an anti PD-1 antibody with that shown by the HDAC6 inhibitors. Anti PD-1 targets the immune checkpoint PD-1/PD-L1 axis and is an established immunotherapy in a growing number of malignancies (Pardoll D. M., Nature Reviews Cancer, 2012, 12: 252-264).
Tumors were induced in immunocompetent mice using the following cell lines: • EMT6 (murine breast cancer) • CT26 (murine colon cancer • 4T1 (triple negative murine breast cancer)
• Therapeutic treatment started when tumor nodules reached approximately 3 mm in diameter. • Compounds 8 and 10 were administered by oral gavage once a day for 5 days a week at 50 mg/kg. • Anti PD-1 antibody was administered three times a week by ip injection at 10 mg/kg.

[3] = system: PD-L1 expression in iDC (GMCSF-IL-4 stimulated monocytes); assay: Inhibition of the expression of PD-L1 in in vitro derived dendritic cells; type: cell-based; conditions: human monocytes, GMCSF-IL-4, 5 days, FIG. 1
Method: FIG. 1: The inhibition of PD-L1 expression in iDC (GMCSF-IL-4 stimulated monocytes). Human monocytes were treated with HDAC6 inhibitors and stimulated with GMCSF-IL-4 for 5 days. After incubation, cells were collected and labelled with an anti PD-L1 antibody. Cells were then washed and fluorescence data were acquired using a flow cytometer (BD FACSVerse). Values on the graphs represent the mean of 3 experiment carried out on 3 different donors (n=3). The expression of PD-L1 is represented by the geometric mean of the fluorescence. *=P<0.05 determined by Student's t test.
To obtain in vitro derived DCs, human monocytes purified from PBMC, were treated for 5 days with GMCSF (50 ng/ml) and IL-4 (10 ng/ml) in the presence of two selective HDAC6 inhibitors described in this invention (compounds 10 and 19) and the HDAC inhibitor example 43 of WO 2012/106343. Control cells were treated with the inhibitor's vehicle. This procedure induces the formation of immature dendritic cells (iDCs) that express PD-L1 (Brown J A et al. J Immunol. 2003; 170:1257-66). After 5 days, iDCs were analyzed for the expression of the inhibitory marker […].

Q: For `O=C(NO)c1ccc(Cn2nnnc2-c2cccs2)cc1` [comp. 8, N-hydroxy-4-((5-(thiophen-2-yl)-1H-tetrazol-1-yl)methyl)benzamide], which “CT-26 tumor growth/progression, single agent” value [1] is on record?
A: significantly reduce CT-26 tumor progression

Q: And the “tumor growth in vivo” value [2]?
A: comparable efficacy in reducing tumor growth; also recorded: reduce tumor growth in vivo

Q: With `O=C(NO)c1cc(F)c(Cn2nnc(-c3ccco3)n2)c(F)c1` [comp. 19, 3,5-difluoro-4-((5-(furan-2-yl)-2H-tetrazol-2-yl)methyl)-N-hydroxybenzamide] as the compound, how does the “PD-L1 expression in iDC” value [3] read?
A: reduced the PD-L1 expression in a statistically significant way

Q: How did the “CT-26 tumor growth inhibition, combination with anti PD-1 antibody” value ([1]; compound p.o. 50 mg/Kg plus anti-PD1 antibody 10 mg/Kg) turn out when `Cn1c(Sc2ccc(C(=O)NO)cc2)nnc1-c1cccs1` [comp. 10, N-hydroxy-4-((4-methyl-5-(thiophen-2-yl)-4H-1,2,4-triazol-3-yl)thio)benzamide] was run?
A: further improves tumor growth inhibition

Q: What about the “CT-26 tumor growth/progression, single agent” value [1] of the same compound?
A: significantly reduce CT-26 tumor progression

Q: And the “PD-L1 expression in iDC” value [3]?
A: reduced the PD-L1 expression in a statistically significant way

Q: And the “tumor growth in vivo” value [2]?
A: comparable efficacy in reducing tumor growth; also recorded: reduce tumor growth in vivo
